“Also recorded” adds a separate entry of the source.
Columns and labels:
Format in all cases: cell-based
IRF3DBD-AR(1-547) = target: T1, IRF3DBD-AR(1-547) (Homo sapiens, UniProt P10275); assay: IRF3DBD-AR(1-547) ISRE-luc reporter assay; conditions: 24 h; for inhibition of IRF3DBD-AR(1-547)-mediated ISRE-luc activation: HEK293 cells; for inhibition of IRF3-AR(1-547)-dependent ISRE-luc reporter activity: PC3 cells
T1 construct: IRF3-AR(1-547) is the fusion of IRF3 DBD with the AR NTD (1-547); expressed in transfected cells
T1 sequence (P10275 1-547): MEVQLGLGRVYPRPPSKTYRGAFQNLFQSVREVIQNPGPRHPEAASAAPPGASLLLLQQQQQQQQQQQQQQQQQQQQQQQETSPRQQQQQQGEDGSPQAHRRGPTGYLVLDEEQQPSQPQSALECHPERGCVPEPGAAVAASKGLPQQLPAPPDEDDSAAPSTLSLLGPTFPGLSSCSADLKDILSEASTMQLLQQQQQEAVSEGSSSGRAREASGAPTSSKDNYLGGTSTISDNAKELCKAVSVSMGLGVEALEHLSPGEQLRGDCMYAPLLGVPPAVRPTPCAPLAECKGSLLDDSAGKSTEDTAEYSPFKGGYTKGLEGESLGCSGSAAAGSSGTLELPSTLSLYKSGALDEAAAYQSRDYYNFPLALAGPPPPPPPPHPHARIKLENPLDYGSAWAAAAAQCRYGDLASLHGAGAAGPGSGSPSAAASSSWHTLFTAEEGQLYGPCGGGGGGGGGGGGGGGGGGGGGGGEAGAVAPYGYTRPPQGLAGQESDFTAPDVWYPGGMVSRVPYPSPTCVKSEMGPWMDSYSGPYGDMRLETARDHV

[1] = target: T2, endogenous AR T877A mutant in LNCaP cells (Homo sapiens, UniProt P10275, T878A); assay: PSA-luc reporter assay in LNCaP cells (endogenous AR T877A mutant)
T2 construct: LNCaP cells, which express endogenous AR T877A mutant; endogenous in cells; host or cells: LNCaP
T2 sequence (P10275 1-920 T878A): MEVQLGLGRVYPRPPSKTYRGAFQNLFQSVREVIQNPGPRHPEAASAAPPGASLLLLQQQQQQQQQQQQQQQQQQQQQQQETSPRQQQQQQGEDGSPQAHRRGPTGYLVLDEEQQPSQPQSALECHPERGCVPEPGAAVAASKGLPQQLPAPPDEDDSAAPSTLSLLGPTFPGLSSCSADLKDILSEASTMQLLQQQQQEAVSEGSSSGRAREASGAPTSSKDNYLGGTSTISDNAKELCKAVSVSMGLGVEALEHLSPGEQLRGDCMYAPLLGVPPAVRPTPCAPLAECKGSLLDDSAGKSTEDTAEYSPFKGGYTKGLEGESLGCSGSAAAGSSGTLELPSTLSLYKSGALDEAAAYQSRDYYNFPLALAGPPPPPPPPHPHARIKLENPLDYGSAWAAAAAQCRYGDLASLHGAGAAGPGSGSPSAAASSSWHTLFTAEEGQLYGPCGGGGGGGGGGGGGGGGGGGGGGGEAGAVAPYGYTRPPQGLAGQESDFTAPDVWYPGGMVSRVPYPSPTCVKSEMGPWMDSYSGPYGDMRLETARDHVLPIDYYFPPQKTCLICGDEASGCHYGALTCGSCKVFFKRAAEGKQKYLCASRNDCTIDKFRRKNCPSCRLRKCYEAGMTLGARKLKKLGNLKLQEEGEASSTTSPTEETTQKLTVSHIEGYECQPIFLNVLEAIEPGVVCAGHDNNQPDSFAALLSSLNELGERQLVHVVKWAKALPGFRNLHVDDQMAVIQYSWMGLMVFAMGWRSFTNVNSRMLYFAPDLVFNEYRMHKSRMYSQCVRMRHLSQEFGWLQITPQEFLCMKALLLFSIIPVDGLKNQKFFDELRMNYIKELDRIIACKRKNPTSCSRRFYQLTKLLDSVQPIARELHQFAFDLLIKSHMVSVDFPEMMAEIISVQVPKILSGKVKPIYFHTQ
Protocol: Experiments were in duplicate and repeated three times. […] LNCaP cells in whole medium were exposed to DMSO vehicle control or compounds for 24 h.

LNCaP cells = assay: MTT assay (cytotoxicity), LNCaP cells; conditions: LNCaP cells, 72 h, Table 4.2
Outline: (§1)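 72 h continuous drug exposure, RPMI 1640/10% FBS, MTT endpoint; DMSO vehicle control.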

[2] = target: T3, Progesterone receptor (PR) (Homo sapiens, UniProt P06401); assay: PR MMTV-luc reporter assay in PC3 cells; design: interference with transcriptional activity of PR: dose or concentration left out as unconfirmed; conditions: for effect on PR transcriptional activation (MMTV-luc): 10 nM R5020, PC3 cells, 24 h
T3 construct: expressed in transfected cells; host or cells: PC3
T3 sequence (P06401 1-933): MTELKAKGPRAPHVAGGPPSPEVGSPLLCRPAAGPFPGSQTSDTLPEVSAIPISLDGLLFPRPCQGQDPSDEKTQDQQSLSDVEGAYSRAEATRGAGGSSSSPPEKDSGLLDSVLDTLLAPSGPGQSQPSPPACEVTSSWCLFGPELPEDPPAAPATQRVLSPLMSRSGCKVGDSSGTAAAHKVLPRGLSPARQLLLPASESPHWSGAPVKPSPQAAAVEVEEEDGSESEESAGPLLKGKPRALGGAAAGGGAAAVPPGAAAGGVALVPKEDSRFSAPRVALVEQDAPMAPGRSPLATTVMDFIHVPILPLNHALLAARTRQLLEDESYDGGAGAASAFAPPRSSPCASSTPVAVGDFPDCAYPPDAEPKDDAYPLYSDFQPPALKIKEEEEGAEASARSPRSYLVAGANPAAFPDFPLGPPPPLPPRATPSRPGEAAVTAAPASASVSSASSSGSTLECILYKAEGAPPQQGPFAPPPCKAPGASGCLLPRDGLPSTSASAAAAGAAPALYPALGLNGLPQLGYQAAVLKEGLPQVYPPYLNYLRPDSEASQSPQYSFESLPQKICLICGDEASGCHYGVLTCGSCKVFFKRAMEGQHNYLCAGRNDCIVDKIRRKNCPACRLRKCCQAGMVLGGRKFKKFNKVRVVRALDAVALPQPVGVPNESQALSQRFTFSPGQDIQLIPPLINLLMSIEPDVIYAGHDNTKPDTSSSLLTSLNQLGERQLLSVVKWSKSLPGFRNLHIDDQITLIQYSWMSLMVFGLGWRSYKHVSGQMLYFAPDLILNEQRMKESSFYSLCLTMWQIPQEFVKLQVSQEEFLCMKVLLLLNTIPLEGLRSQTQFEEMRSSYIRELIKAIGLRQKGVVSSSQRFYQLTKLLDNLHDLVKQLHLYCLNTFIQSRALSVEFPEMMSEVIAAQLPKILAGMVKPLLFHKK

[3] = MTT assay (cytotoxicity), LNCaP cells; conditions: human, LNCaP cells
Outline: as §1

inhibition of IRF3-AR(1-547)-dependent ISRE-luc reporter activity (IRF3DBD-AR(1-547))	IC50 ([1]; FIG. 11) [nM]	interference with transcriptional activity of PR [2]	Compound	inhibition of IRF3DBD-AR(1-547)-mediated ISRE-luc activation (IRF3DBD-AR(1-547))	inhibition of DHT-induced activation of endogenous AR in LNCaP cells (PSA-luc) ([1]; 24 h)	effect of increasing DHT from 1 nM to 10 nM on inhibitory activity in LNCaP cells ([1]; PSA-luc, 24 h)	IC50 (LNCaP cells) [µM]	effect on PR transcriptional activation (MMTV-luc) [2]	IC50 at 72 h ([3]; 72 h, Table 2.1) [µM]	IC50 at 72 h ([3]; 72 h, Table 4.1) [µM]	inhibitory activity compared with EPI at 25 μM (FIG. 11) ([1]; compound at 2.5 μM)	IC50 at 72 h ([3]; 72 h treatment, Table 6.1) [µM]
			O=C(Nc1cccc(C(F)(F)F)c1)Nc1ccc([N+](=O)[O-])c(C(F)(F)F)c1 [Compound 442]	suppressed	potently inhibit; also recorded: suppressed	not competed out	0.5					
			N#Cc1ccc(NC(=O)Nc2cccc(C(F)(F)F)c2)cc1C(F)(F)F [Compound 467]	suppressed	potently inhibit; also recorded: suppressed		0.9					
			N#Cc1ccc(NC(=O)Nc2cccc(C(F)(F)F)c2)cc1Cl [Compound 492]				0.8					
potently inhibit	~1000	do not interfere	O=C(N/C=C/c1cccc(C(F)(F)F)c1)Nc1ccncn1 [Compound 562]	targeting the AR-NTD; also recorded: target the AR-NTD	suppressed; also recorded: potently inhibited; also recorded: good activity			do not interfere; also recorded: selective towards the AR	4.4			
		do not interfere	O=C(Nc1ccc(Br)nc1)Nc1cc(C(F)(F)F)cc(C(F)(F)F)c1 [Compound 566]	targeting the AR-NTD; also recorded: target the AR-NTD				do not interfere		0.8		
potently inhibit		do not interfere	O=C(Nc1cccc(C(F)(F)F)c1)Nc1ccc(NC(=O)c2ccccc2F)c(C(F)(F)F)c1 [Compound 746]	targeting the AR-NTD; also recorded: target the AR-NTD	suppressed; also recorded: potently inhibited; also recorded: good activity			do not interfere; also recorded: selective towards the AR			greater inhibitory activity than EPI at 25 μM	1
